The record followed here is ChEMBL document CHEMBL1201862, “PubChem BioAssay data set” (2004).

Test systems include SW-620; UACC-62; BT-549; CCRF-CEM; UACC-257; Hs-578T; SF-268; HOP-92; OVCAR-5; NCI-H226; HOP-62; LOX IMVI; RPMI-8226; SN12C; NCI-H522; OVCAR-3; HT-29; SK-OV-3; EKVX; M14.
Experiment in all cases: growth of human tumour cells (NCI), 48 h

SMILES strings stand for the structures.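 Growth conditions: 96-well plates. Treatment: test compound, 48 hours, 5 concentrations. Analysis: linear interpolation between bracketing concentrations; unreached endpoints set to highest concentration. GI50 marks 50% less growth.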 Activity calls are given as the source filed them. Cut-off read from the data, not from the text of the source: active = GI50 up to about 1.1 µM and inactive = higher. Bounds are passed on as bounds.

For the molecule `Nc1ncc(C=O)c(NCC2(CO)CCC2)n1`, the GI50 in the assay with SW-620 is 89.9 µM (inactive); with UACC-62 it was 12.3 µM (inactive); in the assay on BT-549, > 10 µM (inactive); in the assay with CCRF-CEM, 38.4 µM (inactive); with UACC-257, > 100 µM (inactive); with Hs-578T it was 41.1 µM (inactive). Moreover, the GI50 in the assay on SF-268 was 87.9 µM (inactive); in the assay with HOP-92 it was 14.5 µM (inactive); in the assay on OVCAR-5 it was 44.8 µM (inactive); in the assay with NCI-H226 it was 27.7 µM (inactive); with HOP-62, 31.7 µM (inactive); in the assay on LOX IMVI, 32.1 µM (inactive). The GI50 in the assay on RPMI-8226 is 8.04 µM (inactive); with SN12C, > 100 µM (inactive); in the assay with NCI-H522 it was 35.6 µM (inactive); in the assay on OVCAR-3, 50.6 µM (inactive); in the assay on HT-29, 64 µM (inactive).
For the molecule `CC1(C)CC(=O)c2c(nc3ccc4ccccc4c3c2-c2ccc(NC(=O)CCCCCCCCC(=O)Nc3ccc(-c4c5c(nc6ccc7ccccc7c46)CC(C)(C)CC5=O)cc3)cc2)C1`, the GI50 in the assay on SK-OV-3, in the assay on SW-620, in the assay on UACC-62, in the assay with BT-549, with CCRF-CEM and in the assay on UACC-257 was > 100 µM (inactive) throughout. The GI50 with Hs-578T, with SF-268, with HOP-92, in the assay on OVCAR-5, with NCI-H226 and in the assay on HOP-62 was > 100 µM (inactive) throughout. Further, the GI50 in the assay on LOX IMVI, with EKVX, with RPMI-8226, with SN12C, with M14 and with OVCAR-3 was > 100 µM (inactive) throughout. Also, in the assay with HT-29, the GI50 is > 100 µM (inactive).
For `Cc1cn(CC(=S)NCCc2c[nH]c3ccccc23)c(=O)[nH]c1=O`, the GI50 in the assay with SK-OV-3 was > 100 µM (inactive); in the assay on SW-620, > 100 µM (inactive); in the assay with UACC-62, 70 µM (inactive); in the assay on BT-549 it was > 100 µM (inactive); with CCRF-CEM, 44.3 µM (inactive); in the assay with Hs-578T, 84.1 µM (inactive). Besides, the GI50 was > 100 µM (inactive) in the assay on SF-268; > 100 µM (inactive) with HOP-92; 33 µM (inactive) in the assay with OVCAR-5; 33.5 µM (inactive) in the assay with NCI-H226; > 100 µM (inactive) in the assay with HOP-62; > 100 µM (inactive) in the assay on LOX IMVI. In addition, the GI50 with EKVX was 17 µM (inactive); in the assay with RPMI-8226 it was 46.5 µM (inactive); in the assay on SN12C it was > 100 µM (inactive); with M14, > 100 µM (inactive); with OVCAR-3 it was > 100 µM (inactive); in the assay with HT-29 it was 31.4 µM (inactive).
Take `CC(/C=C/c1ccc([N+](=O)[O-])o1)=N/N1CC(CN2CCOCC2)OC1=O` (stereo not drawn): the GI50 in the assay on SK-OV-3 was 52.2 µM (inactive); with SW-620 it was 30.2 µM (inactive); in the assay with UACC-62 it was 17.3 µM (inactive); in the assay with BT-549, 6.58 µM (inactive); in the assay on CCRF-CEM, 0.771 µM (active); with UACC-257, 17.5 µM (inactive). Also, the GI50 is 44.8 µM (inactive) with Hs-578T; 17.7 µM (inactive) with SF-268; 13.6 µM (inactive) with HOP-92; 47.3 µM (inactive) with OVCAR-5; 21.4 µM (inactive) with NCI-H226; 26.9 µM (inactive) in the assay with HOP-62. Also, the GI50 in the assay on LOX IMVI was 24.9 µM (inactive); in the assay with EKVX, 30.9 µM (inactive); in the assay with RPMI-8226, 9.64 µM (inactive); in the assay on SN12C, 25.4 µM (inactive); with M14, 17.3 µM (inactive); in the assay with OVCAR-3 it was 16.1 µM (inactive). Further, the GI50 in the assay on HT-29 was 31.4 µM (inactive).
